Reference: paper PMC5596814 (The Journal of Pharmacology and Experimental Therapeutics, 2017)

Tests used:
[1] = parameters: method as in Narasimhan et al., 2013; details: ref Narasimhan et al., 2013, cited from earlier work
in vivo [2] = details: for Cmax / half-life: male, hCYP1A1/1A2 humanized, mouse, in vivo, po, 40 mg/kg, ponatinib 40 mg/kg oral gavage; for Cmax: hCYP1A1/1A2 mice; for half-life: t1/2, hCYP1A1/1A2 mice
Method: All animal work was carried out on 8- to 12-week-old male mice. 3-Methylcholanthrene (3-MC) was suspended in corn oil at 4 mg/ml for administration by intraperitoneal injection at 40 mg/kg (10 μl/g body weight) daily for 3 days for hCYP1A1/2 mice. TCDD was suspended in corn oil at 1 µg/ml for administration by intraperitoneal injection at 10 µg/kg (10 μl/g body weight) daily for 3 days for wild-type (WT) mice. […] For blood sample collection, 10 μl of whole blood was withdrawn from the tail vein at the indicated time points. Samples were immediately added to a tube containing heparin solution (10 μl, 15 IU/ml), put into liquid nitrogen, and then stored at −80°C until processing. On the day of analysis, acetonitrile (80 µl containing 200 ng/ml triazolam) was added to thawed samples, which were shaken for 15 minutes, centrifuged for 10 minutes at 16,000g, and analyzed. […] An aliquot of 0.25 g was extracted with 1 ml of 80% methanol for 30 minutes on a vortex evaporator (Labconco, Kansas City, MO). After centrifugation (30 minutes at 4000g), the solvent of a 800 μl aliquot of the supernatant was removed by speed vacuum, followed by reconstitution in 500 μl methanol and water (50/50, v/v), and analyzed by LC-MRM.
Analysis of in vitro incubation and in vivo blood PK samples was carried out by ultra-performance LC-MS/MS using the Waters Acquity UPLC (Micromass, Manchester, United Kingdom) and Micromass Quattro Premier Mass Spectrometer with electrospray ionization. The chromatography was performed using a C18 column (Kinetex 1.7 µ 100 A; 50 × 2.1 mm; Phenomenex, Macclesfield, United Kingdom) at a temperature of 45°C with mobile phases of 0.1% formic acid (A) and acetonitrile and 0.1% formic acid (B). A gradient at a flow rate of 0.5 ml/min was run over 3 minutes as follows: 0–0.5 minutes, 95% A; 0.5–0.75 minutes, 95%–67.5% A; 0.75–1.50 minutes, 67.5% A, 1.50–2.00 minutes, 67.5%–50% A; 2.00–2.50 minutes, 50%–5% A; and then returning to the initial conditions for a final 0.5 minutes. The cone voltage and collision energy were optimized for each substrate and MRM data were acquired (Supplemental Table 1).
In the present study, the absolute concentrations of the metabolites in the incubation mixture could not be determined because of the lack of authentic standards. Therefore, the relative activity of the P450s was presented by comparing the concentration of the metabolite in a sample with the concentration of the same metabolite in the sample that had the highest response under the same experimental condition ([Yu et al., 2010]). The relative activity of the P450s toward metabolite formation could be calculated according to the ratio of the metabolite concentration to that in the sample with highest mass response. The PK parameters of in vivo data were calculated with a simple noncompartmental model using the WinNonLin software, version 4.1 (Pharsight (Certara, Cambridge, UK)) and are shown with the S.D. values. The P values were calculated using an unpaired t test; *P < 0.05, **P < 0.01, ***P < 0.001.

[3] = system: human recombinant P450 enzymes; assay: Ponatinib biotransformation by panel of 11 human recombinant P450 enzymes; type: in vitro ADME; details: ponatinib 50 µM, P450 100 nM, panel of 11 enzymes
Method: All incubations were performed at 37°C and 300 rpm in a thermomixer. Human cDNA-expressed P450 isoenzymes coexpressed with human NADPH P450 oxidoreductase (see Supplemental Fig. 1 for CYP:oxidoreductase ratio data) were carefully thawed on ice prior to the experiment. […] After 5-minute preincubation at 37°C, the incubation reactions were initiated by addition of a NADPH regenerating system (final concentration: 1.3 mM NADPH, 4 mM glucose-6-phosphate, and 2 unit/ml glucose-6-phosphate dehydrogenase). After 5–120 minutes, an aliquot of 100 µl of reaction mixture was quenched with same volume of cold acetonitrile containing 400 ng/ml of triazolam as the internal standard. […] An aliquot of the supernatant fraction was analyzed by liquid chromatography (LC)–tandem mass spectrometry (MS), i.e., LC-MS/MS. […]
In the present study, the absolute concentrations of the metabolites in the incubation mixture could not be determined because of the lack of authentic standards. […] The relative activity of the P450s toward metabolite formation could be calculated according to the ratio of the metabolite concentration to that in the sample with highest mass response. The PK parameters of in vivo data were calculated with a simple noncompartmental model using the WinNonLin software, version 4.1 (Pharsight (Certara, Cambridge, UK)) and are shown with the S.D. values. […]

mGstp1 = target: T1, mGstp1 (Mus musculus, UniProt P19157); assay: Protein adducts of ponatinib with mGstp1 in the presence of human recombinant CYP1A1 (LC-MS/MS of tryptic digests); type: in vitro ADME; details: ponatinib 50 µM, CYP1A1, 10 µg/ml mGstp1, 80 minutes
T1 construct: made in house
T1 sequence (P19157 2-210 limits assumed): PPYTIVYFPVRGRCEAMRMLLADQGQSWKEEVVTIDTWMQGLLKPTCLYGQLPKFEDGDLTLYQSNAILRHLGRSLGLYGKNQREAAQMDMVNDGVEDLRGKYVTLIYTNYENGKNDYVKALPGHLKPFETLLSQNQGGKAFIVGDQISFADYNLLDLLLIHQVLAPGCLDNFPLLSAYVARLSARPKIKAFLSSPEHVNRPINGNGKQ
Method: The incubation was started by the addition of a NADPH-regenerating system (final concentration: 1.3 mM NADPH, 4 mM glucose-6-phosophate, 2 U/ml glucose-6-phosphate dehydrogenase, and 3.3 mM […]) and allowed to proceed at 37°C for 80 minutes. The reaction was terminated by cooling on ice, and the E. coli membrane containing human recombinant CYP1A1 was removed by ultracentrifugation at 41,000g at 4°C for 80 minutes. […] The solvent was exchanged to 50 mM ammonium bicarbonate and further concentrated to 100 µl.
Aliquots of the solution (10 µl) were mixed with 10 μl of 4× NuPAGE lithium dodecyl sulfate loading buffer (Invitrogen, Carsbad, CA) by incubation at 95°C for 5 minutes and then subjected to SDS-PAGE on a NuPAGE Novex 10% Bis-Tris mini gel (Invitrogen NP0341BOX). After electrophoresis at a constant 180 V for 30 minutes, gels were stained with Coomassie Blue. Bands (20–25 kDa) containing mGstp1 were cut from the gel, and after removing the Coomassie Blue from the gel by adding 100 mM ammonium bicarbonate/acetonitrile (1:1, v/v) and subsequently dehydrating with 100% acetonitrile, the solvent was removed from the gel pieces under vacuum. The residue was resuspended in 0.01 μg/μl MS grade trypsin (Promega, Madison, WI) in 25 mM ammonium bicarbonate and incubated at 37°C overnight. […]

[4] = WT mice treated with TCDD versus vehicle
[5] = cited from earlier work
[6] = human; cited from earlier work
in vivo [7] = details: male, mouse, plasma, po, 40 mg/kg, ponatinib 40 mg/kg oral gavage; for Cmax: WT mice
[8] = concurrent therapy with ketoconazole (a CYP3A4 inhibitor), ref Narasimhan et al., 2013; cited from earlier work
[9] = hCYP1A1/1A2 mice treated with 3-MC versus vehicle
[10] = 3-MC pretreatment (40 mg/kg i.p. daily for 3 days)
[11] = ponatinib treatment, ref Cortes et al., 2012

In the case of `Cc1ccc(C(=O)O)cc1C#Cc1cnc2cccnn12` [AP24600], the activity of metabolite ([1]; esterase/amidase product) is listed as “inactive”.
In the case of `Cc1ccc(C(=O)Nc2ccc(CN3CCNCC3)c(C(F)(F)F)c2)cc1C#Cc1cnc2cccnn12` [N-desmethyl], the “potency relative to ponatinib (fold less potent)” value [1] is given as 4 fold.
For `Cc1ccc(C(=O)Nc2ccc(CN3CCN(C)CC3)c(C(F)(F)F)c2)cc1C#Cc1cnc2cccnn12` [ponatinib, 3-[2-(imidazo[1,2-b]pyridazin-3-yl)ethynyl]-4-methyl-N-4-[(4-methylpiperazin-1-yl)methyl]-3-(trifluoromethyl)phenylbenzamide], the “reduction in AUC0–8 hours” value (in vivo [2]; [9]) was 54%, the reduction in half-life (in vivo [2]; [9]) was 67% and the Cmax (in vivo [2]; [10]) was 620 ± 245 ng/mL. For the same compound, the Cmax (in vivo [2]; vehicle pretreatment) was 705 ± 96 ng/mL, the half-life (in vivo [2]; [10]) was 4.6 ± 0.8 h and the half-life (in vivo [2]; vehicle pretreatment) was 13.9 ± 1.7 h. The “P450 enzymes metabolizing ponatinib, disappearance of the parent drug” value [3] was “principally metabolized via CYP3A4 and CYP1A1”, the “covalent ponatinib adducts on mGstp1 cysteine residues” value (mGstp1) was “ponatinib-Gstp adducts had been formed on Cys-14 and Cys-47” and the “decrease in the ponatinib half-life” value [4] was 62%. The “reduction in the AUC0–8 hours value” [4] was 87%, the “alanine aminotransferase elevation, patients in clinical trials” value ([5]; clinical trials) was 10.5% and the “aspartate aminotransferase elevation, patients in clinical trials” value ([5]; clinical trials) was 8.2%. The “neutropenia, patients” value [5, 11] was 19%, the “thrombocytopenia, patients” value [5, 11] was 37% and the “plasma half-life (t1/2)” value [6] was about 24 h. For the same compound, the Cmax (in vivo [7]; TCDD pretreatment (10 µg/kg i.p. daily for 3 days)) was 253 ± 42 ng/mL, the Cmax (in vivo [7]; vehicle pretreatment) was 1210 ng/mL and the half-life (in vivo [7]; t1/2, WT mice, vehicle pretreatment) was 6.2 ± 0.2 h. For the same compound, the “change of ponatinib AUC0–∞, AUC0–t and Cmax values” [8] was “significantly increased”.
